Drawing on patent US9169270B2, “1-phenyl-substituted heterocyclyl derivatives and their use as prostaglandin D2 receptor modulators” (Actelion Pharmaceuticals Ltd., priority 2012, dated 2015), this text covers IC50 for 15 compounds.

For the assay, the target named is hCRTH2 receptor (Homo sapiens (Human), UniProt Q9Y5Y4). In words: hCRTH2 receptor membranes radioligand (3H-PGD2) displacement assay. To be noted: hCRTH2 membrane fragments, Binding-Buffer with 0.1% BSA. In a few lines: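 Membranes from HEK293 cells expressing recombinant hCRTH2 (20 μg/well) incubated with compound and ³H-PGD2 for 90 min at room temperature in Tris buffer pH 7.0 with NaCl, EDTA, 0.1% BSA, 10 mM MnCl2. Bound radioactivity collected on PEI-treated GF/C filters and counted; non-specific binding defined with excess PGD2.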
Chain of hCRTH2 receptor (Q9Y5Y4 whole entry, the tested form may be a part): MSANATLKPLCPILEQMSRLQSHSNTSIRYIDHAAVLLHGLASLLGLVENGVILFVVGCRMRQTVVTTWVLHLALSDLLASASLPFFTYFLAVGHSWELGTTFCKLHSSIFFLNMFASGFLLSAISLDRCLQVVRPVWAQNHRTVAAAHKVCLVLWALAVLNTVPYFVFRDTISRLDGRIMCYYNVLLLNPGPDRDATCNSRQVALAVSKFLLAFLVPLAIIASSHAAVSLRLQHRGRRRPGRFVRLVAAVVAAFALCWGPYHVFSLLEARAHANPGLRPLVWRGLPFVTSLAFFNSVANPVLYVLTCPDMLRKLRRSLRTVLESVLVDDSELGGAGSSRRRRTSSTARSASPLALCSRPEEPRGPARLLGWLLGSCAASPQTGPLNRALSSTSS
Turning to `Cc1nc2c(s1)[C@H](c1cc(Cl)ccc1OCC(=O)O)N(C(=O)OCc1ccccc1)CC2` [Example 18, (S)-4-(2-Carboxymethoxy-5-chloro-phenyl)-2-methyl-6,7-dihydro-4H-thiazolo[5,4-c]pyridine-5-carboxylic acid benzyl ester], the IC50 worked out at 655 nM.

On to `Cc1nc2c(s1)[C@@H](c1cc(Cl)ccc1OCC(=O)O)N(C(=O)OCc1ccccc1)CC2` [Example 19, (R)-4-(2-Carboxymethoxy-5-chloro-phenyl)-2-methyl-6,7-dihydro-4H-thiazolo[5,4-c]pyridine-5-carboxylic acid benzyl ester], for which the IC50 was 4.71 nM.

On to `O=C(O)COc1ccc(Cl)cc1[C@@H]1c2scnc2CCN1C(=O)OCc1cc(F)ccc1F` [Example 58, (R)-4-(2-Carboxymethoxy-5-chloro-phenyl)-6,7-dihydro-4H-thiazolo[5,4-c]pyridine-5-carboxylic acid 2,5-difluoro-benzyl ester], for which the IC50 came to 1 nM.

Compound `CCC(C)(C)COC(=O)N1CCc2ncsc2[C@H]1c1cc(Cl)ccc1OCC(=O)O` [Example 60, (R)-4-(2-Carboxymethoxy-5-chloro-phenyl)-6,7-dihydro-4H-thiazolo[5,4-c]pyridine-5-carboxylic acid 2,2-dimethyl-butyl ester] displayed an IC50 of 2 nM.

Compound `O=C(O)COc1ccc(Cl)cc1[C@@H]1c2scnc2CCN1C(=O)OCc1ccc(F)cc1` [Example 61, (R)-4-(2-Carboxymethoxy-5-chloro-phenyl)-6,7-dihydro-4H-thiazolo[5,4-c]pyridine-5-carboxylic acid 4-fluoro-benzyl ester] yielded an IC50 of 1.2 nM.

`COC(C)(C)CCOC(=O)N1CCc2ncsc2[C@H]1c1cc(Cl)ccc1OCC(=O)O` [Example 62, (R)-4-(2-Carboxymethoxy-5-chloro-phenyl)-6,7-dihydro-4H-thiazolo[5,4-c]pyridine-5-carboxylic acid 3-methoxy-3-methyl-butyl ester] displayed a concentration for half-maximal inhibition (IC50) of 4.8 nM.

Compound `Cc1ccc(COC(=O)N2CCc3ncsc3[C@H]2c2cc(Cl)ccc2OCC(=O)O)c(C)c1` [Example 63, (R)-4-(2-Carboxymethoxy-5-chloro-phenyl)-6,7-dihydro-4H-thiazolo[5,4-c]pyridine-5-carboxylic acid 2,4-dimethyl-benzyl ester] yielded an IC50 of 0.9 nM.

Consider `O=C(O)COc1ccc(Cl)cc1[C@@H]1c2scnc2CCN1C(=O)OCc1cc(F)ccc1Cl` [Example 64, (R)-4-(2-Carboxymethoxy-5-chloro-phenyl)-6,7-dihydro-4H-thiazolo[5,4-c]pyridine-5-carboxylic acid 2-chloro-5-fluoro-benzyl ester], for which the IC50 turned out to be 0.3 nM.

`CC(C)(C)CCOC(=O)N1CCc2ncsc2[C@H]1c1cc(Cl)ccc1OCC(=O)O` [Example 65, (R)-4-(2-Carboxymethoxy-5-chloro-phenyl)-6,7-dihydro-4H-thiazolo[5,4-c]pyridine-5-carboxylic acid 3,3-dimethyl-butyl ester] showed an IC50 of 1.3 nM. Compared with the last compound, the IC50 is about 4.3-fold higher.

`CC(C)CCOC(=O)N1CCc2ncsc2[C@H]1c1cc(Cl)ccc1OCC(=O)O` [Example 67, (R)-4-(2-Carboxymethoxy-5-chloro-phenyl)-6,7-dihydro-4H-thiazolo[5,4-c]pyridine-5-carboxylic acid 3-methyl-butyl ester] had an IC50 of 0.4 nM.

`O=C(O)COc1ccc(Cl)cc1[C@@H]1c2scnc2CCN1C(=O)OCC1CCC1` [Example 69, (R)-4-(2-Carboxymethoxy-5-chloro-phenyl)-6,7-dihydro-4H-thiazolo[5,4-c]pyridine-5-carboxylic acid cyclobutylmethyl ester]: the IC50 is 4.2 nM.

Compound `O=C(O)COc1ccc(Cl)cc1[C@@H]1c2scnc2CCN1C(=O)OCc1cccc(F)c1F` [Example 71, (R)-4-(2-Carboxymethoxy-5-chloro-phenyl)-6,7-dihydro-4H-thiazolo[5,4-c]pyridine-5-carboxylic acid 2,3-difluoro-benzyl ester] had an IC50 of 0.5 nM. Compared with the last compound, the IC50 is about 8.4-fold lower.

As for `Cc1cccc(COC(=O)N2CCc3ncsc3[C@H]2c2cc(Cl)ccc2OCC(=O)O)c1C` [Example 72, (R)-4-(2-Carboxymethoxy-5-chloro-phenyl)-6,7-dihydro-4H-thiazolo[5,4-c]pyridine-5-carboxylic acid 2,3-dimethyl-benzyl ester], the IC50 is 1.2 nM.

With `O=C(O)COc1ccc(Cl)cc1[C@@H]1c2scnc2CCN1C(=O)OCCCF` [Example 74, (R)-4-(2-Carboxymethoxy-5-chloro-phenyl)-6,7-dihydro-4H-thiazolo[5,4-c]pyridine-5-carboxylic acid 3-fluoro-propyl ester], the half-inhibitory concentration (IC50) was found to be 1.4 nM.

`O=C(O)COc1ccc(Cl)cc1[C@@H]1c2scnc2CCN1C(=O)OCc1ccccc1F` [Example 75, (R)-4-(2-Carboxymethoxy-5-chloro-phenyl)-6,7-dihydro-4H-thiazolo[5,4-c]pyridine-5-carboxylic acid 2-fluoro-benzyl ester] registered an IC50 of 0.6 nM.

As a reminder, the IC50 is the concentration that gives 50% inhibition. Lower therefore signals higher potency.
